Measurements: ChEMBL document CHEMBL1201862, “PubChem BioAssay data set” (2004)
Active and inactive are the calls of the source.

What was measured:
Format in all cases: functional
[1] = target: Sphingosine 1-phosphate receptor 5 (Homo sapiens, UniProt Q9H228); assay: Late stage counterscreen assay for S1P4 antagonists: Fluorescence dose response cell-based screening assay for antagonists of the Sphingosine 1-Phosphate Receptor 5 (S1P5). [Related pubchem assays (depositor defined):AID1510, AID1524, AID1692, AID1853, AID2332, AID489009, AID489017]
Sequence of Sphingosine 1-phosphate receptor 5 (Q9H228 whole entry): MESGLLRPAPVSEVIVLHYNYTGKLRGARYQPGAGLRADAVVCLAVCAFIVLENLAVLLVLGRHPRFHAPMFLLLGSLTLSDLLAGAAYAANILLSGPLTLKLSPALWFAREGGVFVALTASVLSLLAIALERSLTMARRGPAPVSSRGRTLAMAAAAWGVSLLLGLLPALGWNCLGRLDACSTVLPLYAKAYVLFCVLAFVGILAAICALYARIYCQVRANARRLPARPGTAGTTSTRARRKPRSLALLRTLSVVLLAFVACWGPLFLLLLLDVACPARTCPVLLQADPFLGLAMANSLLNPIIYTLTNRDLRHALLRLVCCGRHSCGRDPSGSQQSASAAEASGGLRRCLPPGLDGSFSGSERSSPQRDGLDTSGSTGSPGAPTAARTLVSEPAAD

[2] = target: Sphingosine 1-phosphate receptor 3 (Homo sapiens, UniProt Q99500); assay: Late stage counterscreen assay for S1P4 antagonists: Fluorescence dose response cell-based screening assay for antagonists of the Sphingosine 1-Phosphate Receptor 3 (S1P3). [Related pubchem assays (depositor defined):AID1510, AID1524, AID1692, AID1853, AID2332, AID489009, AID489017]
Sequence of Sphingosine 1-phosphate receptor 3 (Q99500 whole entry): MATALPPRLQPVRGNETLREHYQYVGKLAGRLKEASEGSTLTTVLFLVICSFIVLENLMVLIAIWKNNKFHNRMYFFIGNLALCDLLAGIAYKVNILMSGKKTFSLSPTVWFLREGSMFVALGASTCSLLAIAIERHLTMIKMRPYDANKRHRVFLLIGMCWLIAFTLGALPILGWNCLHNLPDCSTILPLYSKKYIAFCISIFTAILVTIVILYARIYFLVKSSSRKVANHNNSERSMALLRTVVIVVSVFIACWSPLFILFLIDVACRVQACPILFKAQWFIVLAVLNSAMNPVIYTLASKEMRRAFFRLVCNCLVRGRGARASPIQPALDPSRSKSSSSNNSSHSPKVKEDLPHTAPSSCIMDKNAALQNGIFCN

[3] = target: Sphingosine 1-phosphate receptor 1 (Homo sapiens, UniProt P21453); assay: Late stage counterscreen assay for S1P4 antagonists: Fluorescence dose response cell-based screening assay for antagonists of the Sphingosine 1-Phosphate Receptor 1 (S1P1). [Related pubchem assays (depositor defined):AID1510, AID1524, AID1692, AID1853, AID2332, AID489009, AID489017]
Sequence of Sphingosine 1-phosphate receptor 1 (P21453 whole entry): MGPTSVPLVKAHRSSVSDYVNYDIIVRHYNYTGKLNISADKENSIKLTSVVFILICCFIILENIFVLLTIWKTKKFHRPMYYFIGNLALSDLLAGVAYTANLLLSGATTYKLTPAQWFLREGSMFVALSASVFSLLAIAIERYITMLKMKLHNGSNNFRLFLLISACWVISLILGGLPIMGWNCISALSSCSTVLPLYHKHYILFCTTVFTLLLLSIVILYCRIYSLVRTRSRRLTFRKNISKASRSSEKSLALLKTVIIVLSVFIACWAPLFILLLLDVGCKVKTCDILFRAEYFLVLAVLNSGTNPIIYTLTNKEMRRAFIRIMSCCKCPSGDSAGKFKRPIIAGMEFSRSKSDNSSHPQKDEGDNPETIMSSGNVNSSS

[4] = target: Sphingosine 1-phosphate receptor 2 (Homo sapiens, UniProt O95136); assay: Late stage counterscreen assay for S1P4 antagonists: Fluorescence dose response cell-based screening assay for antagonists of the Sphingosine 1-Phosphate Receptor 2 (S1P2). [Related pubchem assays (depositor defined):AID1510, AID1524, AID1692, AID1853, AID2332, AID489009, AID489017]
Sequence of Sphingosine 1-phosphate receptor 2 (O95136 whole entry): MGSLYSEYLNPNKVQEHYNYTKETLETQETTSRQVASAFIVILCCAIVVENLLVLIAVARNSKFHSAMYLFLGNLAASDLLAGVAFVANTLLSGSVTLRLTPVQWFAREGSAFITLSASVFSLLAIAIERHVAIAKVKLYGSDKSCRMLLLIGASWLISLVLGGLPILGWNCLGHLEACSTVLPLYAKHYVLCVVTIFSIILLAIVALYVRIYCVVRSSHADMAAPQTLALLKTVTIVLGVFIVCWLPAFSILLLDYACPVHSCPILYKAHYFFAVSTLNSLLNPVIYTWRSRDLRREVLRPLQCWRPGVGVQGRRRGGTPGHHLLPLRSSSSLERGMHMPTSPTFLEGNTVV

[5] = target: Voltage-dependent T-type calcium channel subunit alpha-1H (Homo sapiens, UniProt O95180);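 also: channel activity triggered by adding a high calcium stimulation buffer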
Sequence of Voltage-dependent T-type calcium channel subunit alpha-1H (O95180 whole entry): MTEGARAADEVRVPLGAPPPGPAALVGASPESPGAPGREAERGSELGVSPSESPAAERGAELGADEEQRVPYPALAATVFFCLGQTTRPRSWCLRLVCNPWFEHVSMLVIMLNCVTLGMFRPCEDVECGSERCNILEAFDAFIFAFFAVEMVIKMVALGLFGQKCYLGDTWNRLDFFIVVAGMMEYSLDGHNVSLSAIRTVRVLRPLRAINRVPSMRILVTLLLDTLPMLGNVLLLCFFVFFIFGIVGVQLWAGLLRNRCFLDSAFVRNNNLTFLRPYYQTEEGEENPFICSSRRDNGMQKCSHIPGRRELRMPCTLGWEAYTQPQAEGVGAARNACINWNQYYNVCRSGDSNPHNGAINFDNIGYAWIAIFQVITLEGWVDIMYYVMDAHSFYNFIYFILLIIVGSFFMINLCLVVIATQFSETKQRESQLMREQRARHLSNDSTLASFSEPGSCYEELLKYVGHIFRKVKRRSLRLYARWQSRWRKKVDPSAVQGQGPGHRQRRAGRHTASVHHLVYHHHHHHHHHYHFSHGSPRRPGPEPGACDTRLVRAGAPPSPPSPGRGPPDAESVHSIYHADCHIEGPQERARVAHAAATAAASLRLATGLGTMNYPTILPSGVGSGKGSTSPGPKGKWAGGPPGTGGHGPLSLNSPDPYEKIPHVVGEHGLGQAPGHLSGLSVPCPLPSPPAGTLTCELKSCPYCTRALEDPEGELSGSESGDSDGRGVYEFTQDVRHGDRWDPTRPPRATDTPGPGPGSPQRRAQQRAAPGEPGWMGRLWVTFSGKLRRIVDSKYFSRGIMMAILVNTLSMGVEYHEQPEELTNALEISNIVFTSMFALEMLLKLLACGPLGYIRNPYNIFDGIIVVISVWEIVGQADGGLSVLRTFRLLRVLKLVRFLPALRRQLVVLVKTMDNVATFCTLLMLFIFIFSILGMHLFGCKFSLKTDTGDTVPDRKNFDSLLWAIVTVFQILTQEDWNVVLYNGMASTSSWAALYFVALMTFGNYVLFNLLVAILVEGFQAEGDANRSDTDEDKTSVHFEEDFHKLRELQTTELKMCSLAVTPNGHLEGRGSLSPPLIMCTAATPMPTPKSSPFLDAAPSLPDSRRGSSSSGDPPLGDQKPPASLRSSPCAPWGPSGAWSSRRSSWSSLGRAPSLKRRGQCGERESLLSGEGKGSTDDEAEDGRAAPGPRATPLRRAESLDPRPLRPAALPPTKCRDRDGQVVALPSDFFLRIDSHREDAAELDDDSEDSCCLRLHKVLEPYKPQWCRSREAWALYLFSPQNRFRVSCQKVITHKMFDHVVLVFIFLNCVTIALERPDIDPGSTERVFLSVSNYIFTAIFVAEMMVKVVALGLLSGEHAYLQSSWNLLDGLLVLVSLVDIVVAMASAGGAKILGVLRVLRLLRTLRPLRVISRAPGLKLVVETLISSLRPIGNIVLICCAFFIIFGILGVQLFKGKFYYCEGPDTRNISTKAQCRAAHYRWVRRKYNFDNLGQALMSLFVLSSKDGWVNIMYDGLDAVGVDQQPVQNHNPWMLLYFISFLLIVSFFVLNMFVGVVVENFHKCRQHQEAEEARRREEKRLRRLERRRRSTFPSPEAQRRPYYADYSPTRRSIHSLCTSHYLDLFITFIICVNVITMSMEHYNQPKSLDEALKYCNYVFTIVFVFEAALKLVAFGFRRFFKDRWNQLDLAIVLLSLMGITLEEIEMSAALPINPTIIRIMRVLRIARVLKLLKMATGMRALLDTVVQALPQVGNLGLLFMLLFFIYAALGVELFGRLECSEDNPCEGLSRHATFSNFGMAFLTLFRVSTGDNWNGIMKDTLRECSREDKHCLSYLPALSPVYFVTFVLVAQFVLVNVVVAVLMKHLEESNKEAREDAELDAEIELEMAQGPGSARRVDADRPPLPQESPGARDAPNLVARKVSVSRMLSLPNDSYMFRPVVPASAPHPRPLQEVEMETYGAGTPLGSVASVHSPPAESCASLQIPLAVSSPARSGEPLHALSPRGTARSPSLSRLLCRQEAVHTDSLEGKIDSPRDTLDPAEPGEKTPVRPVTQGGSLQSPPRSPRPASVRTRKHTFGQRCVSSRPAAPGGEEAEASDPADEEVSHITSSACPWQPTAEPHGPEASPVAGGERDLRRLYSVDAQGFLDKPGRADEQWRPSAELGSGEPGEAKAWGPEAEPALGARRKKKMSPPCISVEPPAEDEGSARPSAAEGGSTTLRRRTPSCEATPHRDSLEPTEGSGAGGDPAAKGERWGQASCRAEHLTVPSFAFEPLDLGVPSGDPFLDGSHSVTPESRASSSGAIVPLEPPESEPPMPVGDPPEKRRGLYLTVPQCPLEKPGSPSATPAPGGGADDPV

[6] = system: T-cell; assay: inhibitors of CD8+ T cell–vesicle binding, dose response, mouse 2C CD8+ T cells, flow cytometry (AID 485284)
[7] = target: T1, Mu-type opioid receptor (Homo sapiens, UniProt P35372); assay: MOR agonists by imaging, SAR follow-up, image-based (AID 2352)
T1 sequence (P35372 whole entry): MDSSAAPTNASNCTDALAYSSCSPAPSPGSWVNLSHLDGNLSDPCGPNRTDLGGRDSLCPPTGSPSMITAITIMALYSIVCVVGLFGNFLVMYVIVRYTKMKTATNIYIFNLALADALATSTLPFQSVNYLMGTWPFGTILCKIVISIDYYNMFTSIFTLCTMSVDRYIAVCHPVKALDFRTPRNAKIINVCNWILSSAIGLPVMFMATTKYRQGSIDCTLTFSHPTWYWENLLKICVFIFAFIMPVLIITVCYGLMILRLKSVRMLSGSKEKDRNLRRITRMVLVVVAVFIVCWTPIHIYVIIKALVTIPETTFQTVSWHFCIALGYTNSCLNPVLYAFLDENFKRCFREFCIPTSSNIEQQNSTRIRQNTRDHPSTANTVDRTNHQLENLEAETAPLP

[8] = target: T2, Delta-type opioid receptor (Homo sapiens, UniProt P41143); assay: DOR agonists, SAR follow-up, image-based (AID 2370)
T2 sequence (P41143 whole entry): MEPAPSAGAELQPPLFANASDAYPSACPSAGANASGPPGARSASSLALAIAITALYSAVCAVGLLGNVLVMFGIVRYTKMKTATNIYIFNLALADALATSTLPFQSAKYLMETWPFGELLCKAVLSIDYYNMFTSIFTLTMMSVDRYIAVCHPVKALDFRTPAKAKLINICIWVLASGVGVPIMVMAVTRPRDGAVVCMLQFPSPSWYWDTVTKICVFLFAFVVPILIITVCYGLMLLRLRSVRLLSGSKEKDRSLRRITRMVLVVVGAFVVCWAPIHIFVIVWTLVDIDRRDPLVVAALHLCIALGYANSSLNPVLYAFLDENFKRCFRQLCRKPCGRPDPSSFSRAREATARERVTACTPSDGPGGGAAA

[9] = target: T3, Kappa-type opioid receptor (Homo sapiens, UniProt P41145); assay: KOR antagonists by imaging, SAR follow-up, image-based (AID 2348)
T3 sequence (P41145 whole entry): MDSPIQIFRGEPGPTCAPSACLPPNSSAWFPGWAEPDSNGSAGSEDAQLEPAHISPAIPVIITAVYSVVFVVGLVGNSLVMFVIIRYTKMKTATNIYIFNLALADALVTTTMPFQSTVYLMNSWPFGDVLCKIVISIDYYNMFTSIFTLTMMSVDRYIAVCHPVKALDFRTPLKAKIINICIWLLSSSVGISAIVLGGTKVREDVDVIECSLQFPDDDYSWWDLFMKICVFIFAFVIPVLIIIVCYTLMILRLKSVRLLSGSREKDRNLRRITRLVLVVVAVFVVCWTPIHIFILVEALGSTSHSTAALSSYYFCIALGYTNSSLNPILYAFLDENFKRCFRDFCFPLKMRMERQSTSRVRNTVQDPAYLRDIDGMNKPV

[10] = target: T1, Mu-type opioid receptor; assay: MOR antagonists, SAR follow-up, image-based (AID 2420);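 also: compounds added before stimulation of receptor with agonist DAMGO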
[11] = target: T4, Short transient receptor potential channel 4 (Mus musculus, UniProt Q9QUQ5); assay: mouse TRPC4 channel activators, dose response, cell-based, HEK293 TRPC4/mu-opioid, Fluo-4 calcium (AID 434937)
T4 sequence (Q9QUQ5 whole entry): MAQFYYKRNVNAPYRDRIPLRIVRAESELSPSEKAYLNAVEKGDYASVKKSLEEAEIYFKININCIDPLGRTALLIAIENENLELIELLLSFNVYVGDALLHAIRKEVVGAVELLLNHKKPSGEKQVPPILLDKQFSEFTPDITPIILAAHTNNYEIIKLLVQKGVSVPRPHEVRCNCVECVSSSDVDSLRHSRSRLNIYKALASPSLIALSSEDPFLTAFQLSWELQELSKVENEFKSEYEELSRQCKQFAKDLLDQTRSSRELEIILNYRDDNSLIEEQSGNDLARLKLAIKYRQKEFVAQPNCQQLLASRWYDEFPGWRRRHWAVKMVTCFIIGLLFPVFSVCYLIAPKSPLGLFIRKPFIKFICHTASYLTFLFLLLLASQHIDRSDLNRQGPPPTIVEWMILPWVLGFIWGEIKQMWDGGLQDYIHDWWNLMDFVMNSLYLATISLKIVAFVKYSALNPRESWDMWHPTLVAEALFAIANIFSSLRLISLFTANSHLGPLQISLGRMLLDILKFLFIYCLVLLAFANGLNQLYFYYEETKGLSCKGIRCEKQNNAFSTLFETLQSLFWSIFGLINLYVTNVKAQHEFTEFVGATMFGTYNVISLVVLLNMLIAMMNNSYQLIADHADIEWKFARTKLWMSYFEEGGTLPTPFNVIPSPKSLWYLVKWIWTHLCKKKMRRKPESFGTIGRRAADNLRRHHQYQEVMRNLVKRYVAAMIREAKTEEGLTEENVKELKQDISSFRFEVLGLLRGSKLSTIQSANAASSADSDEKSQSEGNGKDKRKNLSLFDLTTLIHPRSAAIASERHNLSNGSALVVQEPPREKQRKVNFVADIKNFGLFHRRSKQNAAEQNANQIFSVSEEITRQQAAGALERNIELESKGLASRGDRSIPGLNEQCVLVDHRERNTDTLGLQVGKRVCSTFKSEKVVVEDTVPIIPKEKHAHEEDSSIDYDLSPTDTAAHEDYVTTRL

[12] = target: T3, Kappa-type opioid receptor; assay: KOR agonist analogs, imaging readout, SAR follow-up, image-based (AID 2359)
[13] = target: T2, Delta-type opioid receptor; assay: DOR antagonists, SAR follow-up, image-based (AID 2357)
[14] = target: T3, Kappa-type opioid receptor; assay: kappa opioid receptor blockers, cell-based, luminescence, beta-arrestin, SAR follow-up (AID 2285)
[15] = target: Ion channel NompC (Danio rerio, UniProt Q7T1G6); assay: Dose response cell-based high-throughput screening assay for agonists of the transient receptor potential channel N1 (TRPN1). [Related pubchem assays (depositor defined):AID1424, AID1448]
[16] = target: T5, Mucolipin-3 (Homo sapiens, UniProt Q8TDD5); assay: Fluorescence counterscreen assay for […] agonists: dose response cell-based high-throughput screening assay to identify agonists of the transient receptor potential channel ML3 (TRPML3). [Related pubchem assays: 1424, 1448 ]
T5 sequence (Q8TDD5 whole entry): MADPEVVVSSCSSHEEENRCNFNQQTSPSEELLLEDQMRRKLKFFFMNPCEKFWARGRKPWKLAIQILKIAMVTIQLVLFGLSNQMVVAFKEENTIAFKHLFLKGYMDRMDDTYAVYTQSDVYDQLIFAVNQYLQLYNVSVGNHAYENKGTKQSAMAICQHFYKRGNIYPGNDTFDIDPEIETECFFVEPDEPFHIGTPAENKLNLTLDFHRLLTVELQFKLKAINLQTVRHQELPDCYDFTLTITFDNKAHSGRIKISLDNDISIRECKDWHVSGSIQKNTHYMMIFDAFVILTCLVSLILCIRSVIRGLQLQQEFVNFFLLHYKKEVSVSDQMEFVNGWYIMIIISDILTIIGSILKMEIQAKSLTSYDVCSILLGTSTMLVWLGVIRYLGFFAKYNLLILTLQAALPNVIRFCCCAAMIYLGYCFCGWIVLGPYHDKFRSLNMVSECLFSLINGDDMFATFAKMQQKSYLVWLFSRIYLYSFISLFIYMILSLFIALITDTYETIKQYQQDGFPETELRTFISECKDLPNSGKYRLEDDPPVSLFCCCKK

[17] = target: T6, Bcl-2-related protein A1 (Mus musculus, UniProt Q07440);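 also: confirmatory dose–response counterscreen on Bfl-1, used to check hits from a UBC13 polyubiquitin inhibitor campaign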
T6 sequence (Q07440 whole entry): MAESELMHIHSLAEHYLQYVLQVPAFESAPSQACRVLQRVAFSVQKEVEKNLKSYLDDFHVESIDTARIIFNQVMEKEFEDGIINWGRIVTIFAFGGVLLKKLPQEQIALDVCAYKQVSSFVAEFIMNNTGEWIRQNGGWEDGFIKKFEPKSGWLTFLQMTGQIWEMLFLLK

[18] = target: T7, Ubiquitin-conjugating enzyme E2 N (Homo sapiens, UniProt P61088)
T7 sequence (P61088 whole entry): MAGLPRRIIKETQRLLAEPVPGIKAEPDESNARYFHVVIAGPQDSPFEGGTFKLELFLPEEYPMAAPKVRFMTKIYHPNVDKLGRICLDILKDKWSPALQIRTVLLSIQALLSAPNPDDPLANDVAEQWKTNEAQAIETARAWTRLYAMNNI

[19] = target: T7, Ubiquitin-conjugating enzyme E2 N; remark: listed apart in the source

Which IC50 [1] does the source give for `Cc1cccc(C)c1NC(=O)c1ccc(-c2ccc(Cl)cc2Cl)o1` here?
The IC50 was 9.62 µM (active).

And the IC50 [2]?
Its IC50 is 25.4 µM (inactive).

And the IC50 [3]?
The IC50 was > 25 µM (inactive).

And the IC50 [4]?
Its IC50 is 14.2 µM (inactive).

What about the EC50 [5] of the same molecule?
Its EC50 is 5.94 µM (active).

How did the EC50 [6] turn out when `CCCCn1c(N)c(N(CCOC)C(=O)c2ccc(-c3ccc([N+](=O)[O-])cc3)o2)c(=O)[nH]c1=O` was run?
Its EC50 is 23.9 µM (inactive).

Which EC50 [7] does the source give for `CC(=O)c1ccc(S(=O)(=O)NCc2ccc(C(=O)NCC(c3ccccc3)N(C)C)cc2)cc1` (stereo not given) here?
Its EC50 is > 32 µM (inactive).

What about the EC50 [8] of the same molecule?
Its EC50 is 1.6 µM (active).

And the IC50 [9]?
The IC50 was 4.73 µM (active).

And the IC50 [10]?
Its IC50 is 1.92 µM (active).

And the EC50 [11]?
Its EC50 is 0.596 µM (active).

What about the EC50 [12] of the same molecule?
The EC50 was > 32 µM (inactive).

And the IC50 [13]?
The IC50 was > 32 µM (inactive).

And the IC50 [14]?
Its IC50 is 6.72 µM (active).

Which results are given for `COc1cc(OC)c(C(=O)NC2CCCCCC2)cc1OC`?
EC50 [15]: > 29.9 µM (inactive); EC50 [16]: > 29.9 µM (not active)

Which results are given for `NCCCn1c(C(=O)c2cc(Cl)c(N)c(Cl)c2)c2ccccc2[n+]1[O-]`?
IC50 [17]: > 20 µM (inactive); IC50 [18]: 12.9 µM (active); EC50 [11]: 1.88 µM (active); IC50 [19]: 5.33 µM (active)
